pIC50: −log10 of the molar value. Activity calls are given as the source filed them. The rule behind the calls is not given here.
System: M. tuberculosis H37Rv growth inhibition with meropenem
Assay: dose response, H37Rv, with and without meropenem (AID 434987);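 note: growth over 7 days at 37 °C before Alamar Blue read on day 9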
[1] = M. tuberculosis H37Rv growth inhibition, measured here: IC50 without meropenem
[2] = M. tuberculosis H37Rv growth inhibition, measured here: IC90 without meropenem
[3] = measured here: IC90 with meropenem

SMILES: COc1ccc(/C=N/Nc2nc(-c3ccc(C)cc3)c(NC(C)=O)s2)cc1OC
- IC50: > 100 µM (inactive)
- pIC50 [1]: < 4.00
- IC90 [2]: > 100 µM
- IC90 [3]: > 100 µM

SMILES: CCOC(OCC)c1cn(Cc2ccc3c(c2)C(=O)c2ccccc2C3=O)nn1
- IC50: > 100 µM (inactive)
- pIC50 [1]: < 4.00
- IC90 [2]: > 100 µM
- IC90 [3]: > 100 µM

SMILES: O=C(CCN1C(=O)/C(=C/c2ccccc2F)SC1=S)Nc1ccccn1
- IC50: > 100 µM (inactive)
- pIC50 [1]: < 4.00
- IC90 [2]: > 100 µM
- IC90 [3]: > 100 µM

SMILES: CCn1c(=O)c2cc(C(=O)N(C)c3ccccc3F)sc2c2ccccc21
- pIC50: 4.53
- pIC50 [1]: < 4.00
- IC90 [2]: > 100 µM
- IC90 [3]: > 100 µM

SMILES: NNC(=O)c1cccc(O)c1
- pIC50: 5.00
- pIC50 [1]: 4.10
- IC90 [2]: > 100 µM
- IC90 [3]: 73.9 µM

SMILES: O=C(N/N=C/c1ccc([N+](=O)[O-])o1)c1ccccc1-n1cccc1
- pIC50: 5.32
- pIC50 [1]: 4.86
- IC90 [2]: 35 µM
- IC90 [3]: 29.4 µM

SMILES: O=C(CSc1nnc(-c2ccncc2)o1)c1cccc([N+](=O)[O-])c1
- IC50: 31.6 µM (inactive)
- pIC50 [1]: 4.33
- IC90 [2]: > 100 µM
- IC90 [3]: 45.4 µM

SMILES: COc1ccc(-c2nn(-c3ccccc3)cc2C(=O)Nc2nccs2)cc1OC
- IC50: > 100 µM (inactive)
- pIC50 [1]: < 4.00
- IC90 [2]: > 100 µM
- IC90 [3]: > 100 µM

SMILES: CC1(C)C2CC=C(/C=N/NC(=O)c3ccccc3O)C1C2 (stereo unspecified)
- IC50: 65.7 µM (inactive)
- pIC50 [1]: < 4.00
- IC90 [2]: > 100 µM
- IC90 [3]: > 100 µM

SMILES: CC(=O)OCC(=O)Nc1ccc(C(C)=O)cc1
- IC50: 89.2 µM (inactive)
- pIC50 [1]: 4.02
- IC90 [2]: > 100 µM
- IC90 [3]: > 100 µM

SMILES: C=C1C(=O)O[C@@H]2[C@H]1[C@@H](OC(=O)/C(C)=C/C)C/C(C)=C\C(=O)/C=C(\C)[C@@H]2O
- pIC50: 5.91
- pIC50 [1]: 4.73
- IC90 [2]: 29 µM
- IC90 [3]: 25.2 µM

SMILES: Cc1onc(-c2c(Cl)cccc2Cl)c1/C(N)=N/OC(=O)C1CC1
- pIC50: 5.69
- pIC50 [1]: < 4.00
- IC90 [2]: > 100 µM
- IC90 [3]: > 25 µM

SMILES: CCCCNC(=O)c1onc(CSc2ccc(F)c(F)c2)c1C(=O)O
- IC50: 27.8 µM (inactive)
- pIC50 [1]: 4.26
- IC90 [2]: > 100 µM
- IC90 [3]: 56.8 µM

SMILES: O=C(CSCC(=O)Nc1ccccc1)N/N=C/c1c(O)ccc2ccccc12
- pIC50: 4.50
- pIC50 [1]: < 4.00
- IC90 [2]: > 100 µM
- IC90 [3]: > 100 µM

SMILES: C=C(C)C1Cc2c(C)nn(-c3cccc4ccccc34)c2C1 (stereo unspecified)
- pIC50: 4.81
- pIC50 [1]: 4.41
- IC90 [2]: 58.5 µM
- IC90 [3]: 47.4 µM

SMILES: COc1cc(NC(=S)NC(=O)c2cccs2)ccc1NC(=O)C(C)C
- IC50: > 100 µM (inactive)
- pIC50 [1]: < 4.00
- IC90 [2]: > 100 µM
- IC90 [3]: > 100 µM

SMILES: COc1ccc2sc(-c3ccc(N(C)C)cc3)c(C#CC(C)(C)O)c2c1
- pIC50: 4.70
- pIC50 [1]: < 4.00
- IC90 [2]: > 100 µM
- IC90 [3]: > 100 µM

SMILES: COC(=O)c1cc(OC)c(OC)cc1NC(=O)c1ccc(OC)c(OC)c1
- pIC50: 4.50
- pIC50 [1]: < 4.00
- IC90 [2]: > 100 µM
- IC90 [3]: > 100 µM

SMILES: CCOC(=O)c1sc(Nc2nc3c(OC)cccc3s2)cc1C
- IC50: 98.6 µM (inactive)
- pIC50 [1]: 4.05
- IC90 [2]: > 100 µM
- IC90 [3]: > 100 µM

SMILES: CN=C(Nc1cc(Cl)ccc1Cl)SC1CC(=O)N(c2ccc(C(=O)OC)cc2)C1=O (stereo unspecified)
- IC50: > 100 µM (inactive)
- pIC50 [1]: < 4.00
- IC90 [2]: > 100 µM
- IC90 [3]: > 100 µM

SMILES: O=C(CN1CCC(O)(c2ccc3c(c2)OCO3)CC1)OC1CCCCC1
- pIC50: 4.89
- pIC50 [1]: 4.41
- IC90 [2]: > 100 µM
- IC90 [3]: 35.3 µM

SMILES: O=C1CS/C(=N/N=C2C3CC4CC(C3)CC2C4)N1
- IC50: 11.7 µM (inactive)
- pIC50 [1]: 4.63
- IC90 [2]: 32.5 µM
- IC90 [3]: 13.8 µM

SMILES: COc1cc(OC)c(OC)cc1/C=C1\CCC(C2CCCC2)C1=O (stereo unspecified)
- IC50: 55.9 µM (inactive)
- pIC50 [1]: 4.11
- IC90 [2]: > 100 µM
- IC90 [3]: > 100 µM

SMILES: CCn1nc(C)c([N+](=O)[O-])c1C(=O)NNC(=O)c1ccccc1Cl
- IC50: > 100 µM (inactive)
- pIC50 [1]: < 4.00
- IC90 [2]: > 100 µM
- IC90 [3]: > 100 µM

SMILES: O=C1C2CCN(CC2)C1Cc1ccc(OCCOc2ccccc2)cc1 (stereo unspecified)
- IC50: > 100 µM (inactive)
- pIC50 [1]: < 4.00
- IC90 [2]: > 100 µM
- IC90 [3]: > 100 µM

SMILES: O=C1N=C(N2CCCC2)S/C1=C\c1cccc(Br)c1
- IC50: 30.9 µM (inactive)
- pIC50 [1]: 4.26
- IC90 [2]: > 100 µM
- IC90 [3]: > 100 µM

SMILES: Fc1ccc(C2Nc3cccc4cccc(c34)N2)cc1
- IC50: > 100 µM (inactive)
- pIC50 [1]: < 4.00
- IC90 [2]: > 100 µM
- IC90 [3]: > 100 µM

SMILES: Cc1ccc(C(=O)N/C(=C\c2ccc(-c3ccc(Cl)cc3)o2)C(=O)NCCCN(C)C)cc1
- IC50: 22.4 µM (inactive)
- pIC50 [1]: 4.60
- IC90 [2]: 28.3 µM
- IC90 [3]: 23.7 µM

SMILES: CC1CC(C)(C)n2c(O)c(N=NC(N)=S)c3cccc1c32 (stereo unspecified)
- IC50: > 100 µM (inactive)
- pIC50 [1]: < 4.00
- IC90 [2]: > 100 µM
- IC90 [3]: > 100 µM
